Data on 11 molecules can be found in patent US8299074B2, “P38 MAP kinase inhibitors” (RespiVert Ltd., priority 2008, dated 2012).

Where two headings read alike, the source gives them in different places. Some results are limits rather than exact numbers.

Data set [1] concerns U937 cells. Description: LPS-induced TNF alpha release in U937 cells. Format: cell-based. As for the experimental part:
(§1) LPS-Induced TNF Alpha/IL-8 Release in U937 Cells: Potency U937 cells, human monocytic cell line, were differentiated to macrophage-type cells by incubation with phorbol myristate acetate (PMA; 100 ng/ml) for 48 to 72 hours. Cells were pre-incubated with final concentrations of compound for 2 hrs. […] Coli: O111:B4, Sigma) for 4 hrs, and the supernatant collected for determination of TNFα and IL-8 concentration by sandwich ELISA (Duo-set, R&D systems). […] The inhibition of IL-8 production was calculated at each concentration of test compound by comparison with vehicle control.

Data set [2] relates to BEAS2B cells. Description: Poly I:C-induced ICAM-1 induction in BEAS2B cells. Format: cell-based. Conditions: Homo sapiens, BEAS-2B, read-out: BEAS2B (polyIC) ICAM1 IC50. As for the experimental part:
Poly I:C-Induced ICAM-1 Induction in BEAS2B Cells: Potency Poly I:C (1 ug/ml) (Invivogen Ltd., San Diego, Calif.) was transfected into BEAS2B cells (human bronchial epithelial cells, ATCC) with Oligofectamine (Invitrogen, Carlsbad, Calif.). Cells were pre-incubated with final concentrations of compound for 2 hrs. The level of ICAM1 expression on the cell surface was determined by cell-based ELISA. Briefly, at 18 hrs after poly I:C transfection, cells were fixed with 4% formaldehyde in PBS. After quenching endogenous peroxidase by adding 0.1% sodium azide and 1% hydrogen peroxide, cells were washed with wash-buffer (0.1% Tween in PBS: PBS-Tween). After blocking the wells with 5% milk in PBS-Tween for 1 hr, the cells were incubated with anti-human ICAM-1 antibody (Cell Signaling Technology, Danvers, Mass.) in 1% BSA PBS overnight at 4° C. Cells were washed with PBS-Tween and incubated with the secondary antibody (HRP-conjugated anti-rabbit IgG, Dako Ltd., Glostrup, Denmark). The ICAM-1 signal was detected by adding substrate and reading at 450 nm with a reference wavelength of 655 nm using a spectrophotometer. […] The measured OD 450-655 readings were corrected for cell number by dividing with the OD595 reading in each well.

The test system of data set [3] is U937 cells. Description: LPS-induced IL-8 release in U937 cells. Format: cell-based. Conditions: Homo sapiens, read-out: DU937 (LPS) IL-8 IC50. As for the experimental part: as §1
Data set [4] deals with Differentiated U937 cells. Description: MTT assay (cell viability). Format: cell-based, human. As for the experimental part: MTT Assay Differentiated U937 cells were pre-incubated with compound for 4 hrs in 5% FCS or 10% FCS for 24 hrs. […] After 1 hr incubation, the media were removed, 200 ul of DMSO added to each well and the plates were shaken lightly for 1 h prior to reading the absorbance at 550 nm. The percentage loss of cell viability was calculated for each well relative to vehicle (0.5% DMSO)-treatment. Consequently an apparent increase in cell viability for drug treatment relative to vehicle is tabulated as a negative percentage.
(Formazan colour is commonly taken as a measure of viable cells.)

In data set [5] the test system is THP-1 cells. Description: LPS-induced TNF alpha release in THP-1 cells. Format: cell-based. Conditions: Homo sapiens. The protocol:
LPS-Induced TNF Alpha Release in THP-1 Cells: Potency […] Coli; O111:B4, Sigma) for 4 hr and the supernatant collected for determination of TNFα concentration by sandwich ELISA (Duo-set, R&D systems). The inhibition of TNFα production was calculated at each concentration by comparison with vehicle control.

The target of data set [6] is T1, p38 MAPK alpha (MAPK14) (Homo sapiens, UniProt Q16539).
T1 construct: purchased Invitrogen
The data set can be described thus: Enzyme inhibition assay, p38 MAPK alpha (FRET, Z-LYTE, via MAPKAP-K2). Format: biochemical. The conditions noted are these: read-out: Enzyme p38α IC50.

Where [7] appears, read: Homo sapiens, read-out: DU937 (LPS) TNFα REC50.
[8] abbreviates: Table 2, loss of cell viability, test conducted at 10 μg/ml.
The mark [9] stands for this setting: THP-1, read-out: THP-1 (LPS) TNFα IC50.
The mark [10] stands for this setting: Homo sapiens; read-out: DU937 (LPS) TNFα REC50.
Setting [11] is: THP-1, Table 2, read-out: THP-1 (LPS) TNFα IC50.
The mark [12] stands for this setting: Table 2, loss of cell viability at 1 μg/ml.
Setting [13] is: Table 3, first MTT column, loss of cell viability at 1 μg/ml.
Setting [14] is: Table 3, second MTT column, loss of cell viability at 1 μg/ml.
The mark [15] stands for this setting: THP-1, Table 3, read-out: THP-1 (LPS) TNFα IC50.

T1 sequence (Q16539 whole entry): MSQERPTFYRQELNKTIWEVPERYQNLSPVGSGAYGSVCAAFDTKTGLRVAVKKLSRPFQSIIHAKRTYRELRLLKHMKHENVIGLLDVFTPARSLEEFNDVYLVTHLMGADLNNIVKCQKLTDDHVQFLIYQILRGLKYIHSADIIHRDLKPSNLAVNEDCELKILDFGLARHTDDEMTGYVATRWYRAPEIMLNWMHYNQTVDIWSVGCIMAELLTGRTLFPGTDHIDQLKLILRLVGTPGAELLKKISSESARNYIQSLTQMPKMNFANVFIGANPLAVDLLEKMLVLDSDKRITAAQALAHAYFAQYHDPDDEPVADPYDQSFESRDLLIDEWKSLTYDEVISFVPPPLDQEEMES

The term IC50 denotes the midpoint of a concentration-inhibition curve. In the case of `COCCOCC(=O)Nc1cc(Oc2ccc(NC(=O)Nc3cc(C(C)(C)C)nn3-c3ccc(C)cc3)c3ccccc23)ccn1` [Example 1, N-(4-(4-(3-(3-tert-Butyl-1-p-tolyl-1H-pyrazol-5-yl)ureido)naphthalen-1-yloxy)pyridin-2-yl)-2-(2-methoxyethoxy)acetamide], in data set [1] (setting [7]), the EC50 was less than 10 nM. Also, the IC50 is less than 5000 nM in data set [2], less than 5000 nM in data set [3] and less than 10 nM in data set [5] (setting [9]). The “DU937 (cell viability) MTT assay 4 h” value in data set [4] (setting [8]) is reported as “−^$ (<=30%)”. In data set [4] (setting [8]), the “DU937 (cell viability) MTT assay 24 h” value was “+^$ (>30%)”.
As for `Cc1ccc(-n2nc(C(C)(C)C)cc2NC(=O)Nc2ccc(Oc3ccnc(NC(=O)C4CCOCC4)c3)c3ccccc23)cc1` [Example 2, N-(4-(4-(3-(3-tert-Butyl-1-p-tolyl-1H-pyrazol-5-yl)ureido)naphthalen-1-yloxy)pyridin-2-yl)tetrahydro-2H-pyran-4-carboxamide], the EC50 in data set [1] (setting [10]) was less than 5000 nM. Also, the IC50 in data set [2] (Table 2), in data set [3] (Table 2) and in data set [5] (setting [11]) was less than 10 nM in each case. The “DU937 (cell viability) MTT assay 4 h” value in data set [4] (setting [8]) is “−^$ (<=30%)”. The “DU937 (cell viability) MTT assay 24 h” value in data set [4] (setting [8]) is listed as “+^$ (>30%)”.
`CSCC(=O)Nc1cc(Oc2ccc(NC(=O)Nc3cc(C(C)(C)C)nn3-c3ccc(C)cc3)c3ccccc23)ccn1` [Example 3, N-(4-(4-(3-(3-tert-Butyl-1-p-tolyl-1H-pyrazol-5-yl)ureido)naphthalen-1-yloxy)pyridin-2-yl)-2-(methylthio)acetamide]: in data set [1] (setting [10]), the EC50 is less than 5000 nM. The IC50 in data set [2] (Table 2) was less than 5000 nM; in data set [3] (Table 2), less than 10 nM; in data set [5] (setting [11]) it was less than 10 nM. Also, the “DU937 (cell viability) MTT assay 4 h” value in data set [4] (setting [8]) is reported as “−^$ (<=30%)”. Moreover, the “DU937 (cell viability) MTT assay 24 h” value in data set [4] (setting [8]) is given as “+^$ (>30%)”.
Regarding `COCCC(=O)Nc1cc(Oc2ccc(NC(=O)Nc3cc(C(C)(C)C)nn3-c3ccc(C)cc3)c3ccccc23)ccn1` [Example 4, N-(4-(4-(3-(3-tert-Butyl-1-p-tolyl-1H-pyrazol-5-yl)ureido)naphthalen-1-yloxy)pyridin-2-yl)-3-methoxypropanamide], the EC50 in data set [1] (setting [10]) was less than 10 nM. Besides, the IC50 in data set [2] (Table 2), in data set [3] (Table 2) and in data set [5] (setting [11]) was less than 10 nM throughout. Besides, the “DU937 (cell viability) MTT assay 4 h” value in data set [4] (setting [8]) is “−^$ (<=30%)”. The “DU937 (cell viability) MTT assay 24 h” value in data set [4] (setting [8]) is “+^$ (>30%)”.
In the case of `COCC(=O)Nc1cc(Oc2ccc(NC(=O)Nc3cc(C(C)(C)C)nn3-c3ccc(C)cc3)c3ccccc23)ccn1` [Example 8, N-(4-(4-(3-(3-tert-Butyl-1-p-tolyl-1H-pyrazol-5-yl)ureido)naphthalen-1-yloxy)pyridin-2-yl)-2-methoxyacetamide], the EC50 in data set [1] (setting [10]) is less than 10 nM. Besides, the IC50 in data set [2] (Table 2) was less than 10 nM; in data set [3] (Table 2), less than 10 nM; in data set [5] (setting [11]), less than 5000 nM. Besides, the “DU937 (cell viability) MTT assay 4 h” value in data set [4] (setting [12]) is “− (<=30%)”. In data set [4] (setting [12]), the “DU937 (cell viability) MTT assay 24 h” value was “+ (>30%)”.
For the molecule `[2H]c1c([2H])c(C([2H])([2H])[2H])c([2H])c([2H])c1-n1nc(C(C)(C)C)cc1NC(=O)Nc1ccc(Oc2ccnc(NC(=O)COC)c2)c2ccccc12` [Example 10, N-(4-(4-(3-(3-tert-butyl-1-(2,3,5,6-tetradeutero-4-(trideuteromethyl)phenyl)-1H-pyrazol-5-yl)ureido)naphthalen-1-yloxy)pyridin-2-yl)-2-methoxyacetamide], in data set [1] (setting [10]), the EC50 was less than 10 nM. Also, the IC50 in data set [2] (Table 2), in data set [3] (Table 2) and in data set [5] (setting [11]) was less than 10 nM each time. Further, the “DU937 (cell viability) MTT assay 4 h” value in data set [4] (setting [12]) is “− (<=30%)”. Besides, the “DU937 (cell viability) MTT assay 24 h” value in data set [4] (setting [12]) is recorded as “+ (>30%)”.
As for `COCC(=O)Nc1cc(Oc2ccc(NC(=O)Nc3cc(C(C)(C)C)nn3-c3ccc(C)cc3)c(C)c2)ccn1` [Example 24, N-(4-(4-(3-(3-tert-Butyl-1-p-tolyl-1H-pyrazol-5-yl)ureido)-3-methylphenoxy)pyridin-2-yl)-2-methoxyacetamide], the EC50 in data set [1] (setting [10]) was less than 10 nM. Further, the IC50 in data set [6] (Table 2) was less than 5000 nM; in data set [3] (Table 2), less than 10 nM; in data set [5] (setting [11]), less than 10 nM. Further, the “DU937 (cell viability) MTT assay 4 h” value in data set [4] (setting [12]) was “− (<=30%)”. Also, the “DU937 (cell viability) MTT assay 24 h” value in data set [4] (setting [12]) is given as “+ (>30%)”.
For `Cc1ccc(-n2nc(C(C)(C)C)cc2NC(=O)Nc2ccc(Oc3ccnc(NC(=O)NC4CC4)c3)c3ccccc23)cc1` [Example 33, 1-(4-((2-(3-Cyclopropylureido)pyridin-4-yl)oxy)naphthalen-1-yl)-3-(3-(tert-butyl)-1-(p-tolyl)-1H-pyrazol-5-yl)urea], the EC50 in data set [1] (setting [10]) was less than 10 nM. Moreover, the IC50 is less than 5000 nM in data set [2] (Table 3), less than 5000 nM in data set [6] (Table 3) and less than 10 nM in data set [5] (setting [15]). The “DU937 (cell viability) MTT assay 4 h” value in data set [4] (setting [13]) and in data set [4] (setting [14]) was “− (<=30%)” each time.
Regarding `COCCOCC(=O)N1CCC(NC(=O)Nc2cc(Oc3ccc(NC(=O)Nc4cc(C(C)(C)C)nn4-c4ccc(C)cc4)c4ccccc34)ccn2)CC1` [Example 40, 2-(2-Methoxyethoxy)-1-(4-(3-(4-(4-(3-(3-tert-butyl-1-p-tolyl-1H-pyrazol-5-yl)ureido)naphthalen-1-yloxy)pyridin-2-yl)ureido)piperidin-1-yl)ethanone], the EC50 in data set [1] (setting [7]) is less than 10 nM. Moreover, the IC50 in data set [2], in data set [3] and in data set [5] (setting [9]) was less than 10 nM throughout. For the same molecule, the “DU937 (cell viability) MTT assay 4 h” value in data set [4] (setting [13]) is listed as “− (<=30%)”; in data set [4] (setting [14]), “+ (>30%)”.
As for `Cc1ccc(-n2nc(C(C)(C)C)cc2NC(=O)Nc2ccc(Oc3ccnc(NC(=O)NC4CCN(S(C)(=O)=O)CC4)c3)c3ccccc23)cc1` [Example 41, N-Methylsulfonyl-4-(3-(4-(4-(3-(3-tert-butyl-1-p-tolyl-1H-pyrazol-5-yl)ureido)naphthalen-1-yloxy)pyridin-2-yl)ureido)piperidine], in data set [1] (setting [10]), the EC50 is less than 5000 nM. For the same molecule, the IC50 was less than 10 nM in data set [6] (Table 3), less than 5000 nM in data set [3] (Table 3) and less than 10 nM in data set [5] (setting [15]). Besides, the “DU937 (cell viability) MTT assay 4 h” value is “− (<=30%)” in data set [4] (setting [13]) and “+ (>30%)” in data set [4] (setting [14]).
`Cc1ccc(-n2nc(C(C)(C)C)cc2NC(=O)Nc2ccc(Oc3ccnc(NC(=O)NC4CC4)n3)c3ccccc23)cc1` [Example 69, 1-Cyclopropyl-3-(4-(4-(3-(3-tert-butyl-1-p-tolyl-1H-pyrazol-5-yl)ureido)naphthalen-1-yloxy)pyrimidin-2-yl)urea]: the EC50 in data set [1] (setting [10]) was less than 10 nM. For the same molecule, the IC50 is less than 10 nM in data set [6] (Table 1); less than 10 nM in data set [3] (Table 1); less than 5000 nM in data set [5] (THP-1, Table 1, read-out: THP-1 (LPS) TNFα IC50). Further, the “DU937 (cell viability) MTT assay 4 h” value is given as “− (<=30%)” in data set [4] (Table 1, MTT, loss of cell viability at 1 μg/ml) and “− (<=30%)” in data set [4] (Table 1, first MTT column, loss of cell viability at 1 μg/ml).
